Laboratory results as given in ChEMBL document CHEMBL1201862, “PubChem BioAssay data set” (2004).
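These data come from cells grown in 96-well plates and exposed to compound for 48 hours at five concentrations. GI50 marks 50% less growth.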 The source made the active and inactive calls. Rule as the data show it: active = GI50 up to about 1.1 µM and inactive = higher.

Experiments:
Assay in all cases: NCI anticancer screen, dose series, 48 h
[1] = system: HCC 2998
[2] = system: HOP-92
[3] = system: M14
[4] = system: HOP-62
[5] = system: SNB-19
[6] = system: OVCAR-3
[7] = system: OVCAR-8
[8] = system: SW-620
[9] = system: IGROV-1
[10] = system: SF-295
[11] = system: SK-MEL-2
[12] = system: LOX IMVI
[13] = system: U-251
[14] = system: NCI-H460

Measured: GI50

CCCCCCCCCCCCCCCCCC(=O)NCC(COP(=O)(O)O)OCC (stereo not given)
inactive: [1] > 100 µM | [2] 13.7 µM | [3] 77.1 µM | [4] 22 µM | [5] 47.2 µM | [6] > 100 µM | [7] 36.6 µM | [8] > 100 µM | [9] 49.9 µM | [10] 18.5 µM | [11] 38.1 µM

Cc1ccc(C(=O)O/N=C2/CCC/C2=C\c2ccccc2)cc1
inactive: [1] > 100 µM | [2] > 100 µM | [3] > 100 µM | [4] > 100 µM | [6] > 100 µM | [12] > 100 µM | [7] > 100 µM | [8] > 100 µM | [9] > 100 µM | [13] > 100 µM | [10] > 100 µM | [14] > 100 µM | [11] > 100 µM

COc1ccc(/C=C/C(=O)c2sc(Nc3ccc([N+](=O)[O-])cc3)nc2C)cc1
inactive: [1] 27.5 µM | [2] 20.8 µM | [4] 64.1 µM | [5] 35.3 µM | [6] 26 µM | [12] 31.6 µM | [7] 39.1 µM | [8] 42.3 µM | [9] 66.5 µM | [13] 65.2 µM | [10] 23.3 µM | [14] 44.6 µM | [11] 17.5 µM

Cn1c(CBr)nc2c1C(=O)c1nc(CBr)[nH]c(=O)c1C2=O
inactive: [2] 61.4 µM | [3] > 100 µM | [12] 50.1 µM | [7] > 100 µM | [8] > 100 µM | [9] > 100 µM | [13] > 100 µM | [10] > 100 µM | [14] > 100 µM

C#CCN(N=O)C(=O)NCCCC(NC(C)=O)C(=O)NCc1ccccc1 (stereo not given)
inactive: [1] > 100 µM | [2] > 100 µM | [3] > 100 µM | [4] > 100 µM | [5] > 100 µM | [6] > 100 µM | [12] 82.2 µM | [7] > 100 µM | [8] 92.5 µM | [9] > 100 µM | [13] > 100 µM | [10] > 100 µM | [14] 28.8 µM

CN1/C(=C/C(=O)c2ccc(Cl)cc2)Nc2ccccc21
inactive: [1] 56 µM | [3] 67.3 µM | [5] 41.6 µM | [6] 47.1 µM | [12] 39.3 µM | [7] 83.9 µM | [8] 55.5 µM | [9] 38.6 µM | [13] 47.3 µM | [10] 44.9 µM | [14] 32.5 µM | [11] > 100 µM

N#C/C(=C1\SC(/N=N/c2ccc(Cl)cc2)C(=O)N1c1ccccc1)c1nc2ccccc2[nH]1 (stereo not given)
inactive: [2] 18.8 µM | [3] 20.1 µM | [4] 19.8 µM | [5] 30.1 µM | [6] 17.1 µM | [12] 15 µM | [7] 54.2 µM | [8] 98.6 µM | [13] 20.3 µM | [10] 18.5 µM | [14] 33.7 µM | [11] 18.2 µM

O=S(=O)(O)c1ccc(/N=N/c2nc(C(F)(F)F)c(C(F)(F)F)[nH]2)cc1
inactive: [2] 16.6 µM | [3] 20.8 µM | [4] 36.6 µM | [5] 29.9 µM | [6] 33 µM | [12] 15.8 µM | [7] 29.4 µM | [8] 41.5 µM | [9] > 100 µM | [13] 41.9 µM | [10] 65.2 µM | [14] 82 µM | [11] 30.3 µM

Cc1ccc(S(=O)(=O)NC(=O)C2S(=O)(=O)OCCOS2(=O)=O)cc1
inactive: [1] > 100 µM | [2] > 100 µM | [3] > 100 µM | [4] > 100 µM | [5] > 100 µM | [6] > 100 µM | [7] > 100 µM | [8] > 100 µM | [10] > 100 µM | [11] > 100 µM

CC(C)C(Sc1nc(-c2ccccc2)c(-c2ccccc2)[nH]1)c1n[nH]c(=S)n1-c1ccccc1 (stereo not given)
inactive: [1] 28.4 µM | [2] 22.5 µM | [3] 19.2 µM | [4] 44.6 µM | [5] 25 µM | [6] 19.6 µM | [12] 17.5 µM | [7] 34.5 µM | [8] 23.4 µM | [9] 26.4 µM | [13] 22.9 µM | [10] 22.3 µM | [14] 32.3 µM | [11] 20.4 µM

CC(C)=CC(=O)c1c(C(=O)O)nc2ccccc2[n+]1[O-]
inactive: [1] > 100 µM | [2] > 100 µM | [3] > 100 µM | [4] > 100 µM | [5] > 100 µM | [12] > 100 µM | [8] > 100 µM | [9] > 100 µM | [13] > 100 µM | [10] > 100 µM | [14] > 100 µM | [11] > 100 µM

CN1S(=O)(=O)N(C)P12(N=P(CP(=NP13(N(C)S(=O)(=O)N1C)N(C)S(=O)(=O)N3C)(c1ccccc1)c1ccccc1)(c1ccccc1)c1ccccc1)N(C)S(=O)(=O)N2C
inactive: [1] > 100 µM | [2] > 100 µM | [3] > 100 µM | [4] > 100 µM | [5] > 100 µM | [6] > 100 µM | [12] > 100 µM | [7] > 100 µM | [8] > 100 µM | [9] > 100 µM | [13] > 100 µM | [14] > 100 µM | [11] > 100 µM

COc1cccc(OC)c1/C=N\N1C(=O)c2ccccc2C1=O
inactive: [1] 29.5 µM | [2] 47.2 µM | [3] 19.7 µM | [4] > 100 µM | [5] > 100 µM | [6] 19.9 µM | [12] 58.5 µM | [7] 29.6 µM | [8] 41.6 µM | [9] 84.3 µM | [10] 92.3 µM | [14] 43.2 µM | [11] 60.8 µM

CSc1nc(NC2OCC(OC(C)=O)C(OC(C)=O)C2OC(C)=O)c(/N=C\C=N\c2c(NC3OCC(OC(C)=O)C(OC(C)=O)C3OC(C)=O)nc(SC)n(C)c2=O)c(=O)n1C (stereo not given)
inactive: [1] > 100 µM | [2] > 100 µM | [3] > 100 µM | [4] > 100 µM | [5] 38.4 µM | [6] > 100 µM | [12] > 100 µM | [7] > 100 µM | [8] > 100 µM | [9] > 100 µM | [13] > 100 µM | [10] > 100 µM | [14] > 100 µM | [11] > 100 µM

C=CC[P@@]1(=O)O[C@H](c2ccccc2)C(C)N1C(C)C (stereo not given in full)
inactive: [1] > 100 µM | [3] > 100 µM | [5] > 100 µM | [6] > 100 µM | [12] > 100 µM | [7] > 100 µM | [8] > 100 µM | [9] > 100 µM | [13] > 100 µM | [10] > 100 µM | [14] > 100 µM

COc1cc(/C=C/c2ccc(OC(C)=O)cc2)cc(OC)c1OC
inactive: [2] 30 µM | [3] 27.9 µM | [4] 45.7 µM | [5] 34 µM | [6] 22.6 µM | [12] 29.2 µM | [7] 31.2 µM | [8] 43.5 µM | [9] 32.4 µM | [13] 28 µM | [10] 26.6 µM | [14] 26.1 µM
